Reference: PMC9410468 (Marine Drugs, 2022)

Experiments:
rα3β4 nAChR = rα3β4 nAChR (Rattus norvegicus, UniProt P04757+P12392); type: cell-based
rα6/α3β4 nAChR = type: cell-based, rat
RAW264.7 cells [1] = type: cell-based, mouse
RAW264.7 cells [2] = type: cell-based, mouse; remark: listed apart in the source
α3β4 nAChR = conditions: cited from earlier work
[3] = in vivo; cited from earlier work

rα3β4 nAChR, sequence (P04757 26-499 limits assumed): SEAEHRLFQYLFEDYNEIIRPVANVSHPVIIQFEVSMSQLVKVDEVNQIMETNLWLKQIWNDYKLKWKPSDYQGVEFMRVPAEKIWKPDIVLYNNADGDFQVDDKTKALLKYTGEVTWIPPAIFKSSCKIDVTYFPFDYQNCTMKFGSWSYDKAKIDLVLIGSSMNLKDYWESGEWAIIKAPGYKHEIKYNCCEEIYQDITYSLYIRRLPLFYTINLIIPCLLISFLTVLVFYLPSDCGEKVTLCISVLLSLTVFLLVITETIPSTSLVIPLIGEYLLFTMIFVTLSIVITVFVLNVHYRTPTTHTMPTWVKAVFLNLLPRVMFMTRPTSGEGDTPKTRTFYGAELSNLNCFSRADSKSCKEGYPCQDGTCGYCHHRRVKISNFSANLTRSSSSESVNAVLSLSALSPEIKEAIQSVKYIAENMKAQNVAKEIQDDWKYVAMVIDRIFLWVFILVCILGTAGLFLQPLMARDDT
rα3β4 nAChR, sequence (P12392 21-495 limits assumed): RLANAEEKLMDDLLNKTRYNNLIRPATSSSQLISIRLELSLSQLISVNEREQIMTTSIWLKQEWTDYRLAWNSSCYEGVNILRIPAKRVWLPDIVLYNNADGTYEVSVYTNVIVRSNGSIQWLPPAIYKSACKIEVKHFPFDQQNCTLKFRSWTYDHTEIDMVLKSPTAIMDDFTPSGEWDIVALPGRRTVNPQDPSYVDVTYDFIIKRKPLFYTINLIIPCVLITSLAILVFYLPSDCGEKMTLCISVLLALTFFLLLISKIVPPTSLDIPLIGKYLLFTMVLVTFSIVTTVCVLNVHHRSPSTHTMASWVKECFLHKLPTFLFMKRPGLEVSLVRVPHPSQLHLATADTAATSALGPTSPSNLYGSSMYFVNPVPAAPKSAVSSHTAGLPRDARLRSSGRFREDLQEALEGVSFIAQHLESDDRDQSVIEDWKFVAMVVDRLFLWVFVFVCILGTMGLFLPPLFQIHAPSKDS

Row | SMILES | Hill Slope (rα3β4 nAChR) | change of IC50 compared with WT TxID (rα3β4 nAChR) | inhibitory activity at rα3β4 (in words) (rα3β4 nAChR) | potency at α3β4 compared with native TxID (in words) (rα3β4 nAChR) | inhibitory activity at rα6/α3β4 (in words) (rα6/α3β4 nAChR) | fluorescence intensity, flow cytometry (in words) (RAW264.7 cells [1]) | red fluorescence labelling of cells (in words) (RAW264.7 cells [2]) | IC50 (α3β4 nAChR) | anti-nicotine addiction effect (in words) [3]
1 | CC[C@H](C)[C@@H]1NC(=O)[C@@H]2CCCN2C(=O)[C@H](CO)NC(=O)[C@H](CCSC)NC(=O)[C@H](C)NC(=O)[C@H](CO)NC(=O)[C@@H]2CSSC[C@H](NC(=O)CNC(=O)c3ccc(-c4c5ccc(=[N+](C)C)cc-5oc5cc(N(C)C)ccc45)c(C(=O)[O-])c3)C(=O)N[C@@H](CSSC[C@@H](C(N)=O)NC1=O)C(=O)N[C@@H](CO)C(=O)N[C@@H](Cc1c[nH]cn1)C(=O)N1CCC[C@H]1C(=O)N[C@@H](C(C)C)C(=O)N2 [TxID-F] | 0.8 (0.7–0.9) | 3 fold | most inhibitory activity | maintained the same order of potency | followed with the rα6/α3β4 subtype | strong fluorescence intensity | red fluorescence signal was observed on the RAW264.7 cells | – | –
2 | CC[C@H](C)[C@@H]1NC(=O)[C@@H]2CCCN2C(=O)[C@H](CO)NC(=O)[C@H](CCSC)NC(=O)[C@H](C)NC(=O)[C@H](CO)NC(=O)[C@@H]2CSSC[C@H](NC(=O)CN)C(=O)N[C@@H](CSSC[C@@H](C(N)=O)NC1=O)C(=O)N[C@@H](CO)C(=O)N[C@@H](Cc1c[nH]cn1)C(=O)N1CCC[C@H]1C(=O)N[C@@H](C(C)C)C(=O)N2 [TxID] | 0.6 (0.5–0.7) | – | – | – | – | – | – | […] | anti-nicotine addiction effect
